Data published in paper PMC3639963, “A New Class of Small Molecule Inhibitor of BMP Signaling” (PLoS ONE, 2013).
Several values for one entry are separate records, joined by “and”; a condition that tells them apart may be missing. Identical values can stand only once.

Assays:
C2C12 cells = conditions: cited from earlier work
[1] = system: mRFP under control of a BMP response element; assay: Western blot for mRFP in Tg(BRE:mRFP) embryos; format: in vivo, zebrafish; conditions: 26 hours old embryos
Experimental: (§1) Inhibitor stocks were diluted in DMSO and then further diluted in fish water to give the required inhibitor concentrations. To minimize the amount of inhibitors used, experiments were performed in 24-well plates with approximately 20 embryos per well in a volume of 1 mL. The chemical treatment was applied by immersing 8- to 16-cell stage Tg(BRE:mRFP) embryos (dorsalization experiment) or 12 hours old Tg(fli1a:eGFP) embryos (ISV experiment) in the fish water supplemented with DMSO or the chemical inhibitors. For the ISV experiment, embryos were manually dechorionated after bud stage before treatment. Embryos were scored and photographed at 26 or 48 hours.
Ten non-dechorionated 26 hours old treated Tg(BRE:mRFP) embryos were snap frozen on dry ice and stored at −80°C. Protein extracts were prepared as described previously for Xenopus embryos. Extraction buffer was freshly prepared. 10 µL per embryo of the protein extract buffer was used to lyse the embryos using a plastic pestle and a pellet pestle motor (Kontes). 40 µg (∼ 1 embryo equivalent) of protein extract was loaded per lane on a 12.5% SDS-PAGE gel. The rabbit anti-mRFP (Invitrogen, R10367) and the goat anti-MCM6 (Santa Cruz, sc-9843) antibodies were used for Western blots.

[2] = system: BMP6-induced Smad1/5/8 phosphorylation in C2C12 cells; assay: BMP6-induced Smad1/5/8 phosphorylation, Western blot; format: cell-based; conditions: for inhibition of BMP6-induced Smad1/5/8 phosphorylation: qualitative
Experimental: C2C12 and HEK293 cells were grown in DMEM supplemented with 10% FCS (PAA) and seeded at a density of 1 x 10^5 cells per well in 6-well plates. The next day the cells were starved in DMEM containing 1% FCS for 5 hours. Inhibitors were added at the indicated concentrations for 30 minutes followed by 10 ng/mL BMP4 (Peprotech), 100 ng/mL BMP6 (Peprotech), 100 ng/mL Activin A (Peprotech) or 2 ng/mL TGF-β1 (Cell Signaling) for 1 hour. Cells were washed in PBS and lysed on ice for 30 minutes in lysis buffer (20 mM Tris-HCl pH 7.5, 150 mM NaCl, 1% Triton X-100, 25 mM NaF, 25 mM Na β-glycerophosphate, 2 mM Na3VO4) containing protease inhibitors (Roche). Protein concentration in the clarified lysate was determined by Bradford Assay (Pierce) and 15 µg run on 4–12% Bis-Tris gel (Biorad). The protein was transferred onto nitrocellulose membrane (GE Healthcare) and probed with the relevant antibody at 4°C overnight (Cell Signaling: anti-Smad 1 (#9743), anti-P-Smad 1/5/8 (#9511), anti-Smad 2 (#5339), anti-P-Smad 2 (#3101). After subsequent incubation with HRP-conjugated anti-rabbit antibody, protein bands were detected using ECL (Pierce) and an LAS4000 image reader. Cells were purchased originally from the European Collection of Cell Cultures (ECACC) available through Sigma.

[3] = system: Tg(BRE:mRFP) transgenic zebrafish embryos; assay: Dorsalization of zebrafish embryos; format: in vivo; conditions: treated from the 8- to 16-cell stage, scored at 26 hours
Experimental: as §1, with “The zebrafish colony was maintained as described and embryos were raised at 28.5°C. The Tg(BRE:mRFP) transgenic line (also called BRE-mRFP) has been described previously and expresses mRFP in response to BMP signaling. […] Inhibitor” for “Inhibitor”, “[…])” for “Tg(fli1a:eGFP)”

ALK3 = biological target: T1, ALK3 (Homo sapiens, UniProt P36894); assay: In vitro kinase assay ([γ-32P]ATP); format: biochemical; conditions: at the Km value of ATP; triplicate
T1 construct: purchased Nanosyn (enzymatic panel); SGC in-house recombinant human kinases (DSF panel); Invitrogen (ALK1-6)
Experimental: (§2) Inhibitors were added at concentrations between 0 and 10 µM in kinase reaction buffer and tested in triplicate.

ALK1 = biological target: T2, ALK1 (Homo sapiens, UniProt P37023); assay: In vitro kinase assay ([γ-32P]ATP); format: biochemical; conditions: at the Km value of ATP; triplicate
T2 construct: purchased Nanosyn (enzymatic panel); SGC in-house recombinant human kinases (DSF panel); Invitrogen (ALK1-6)
T2 sequence (P37023 22-503): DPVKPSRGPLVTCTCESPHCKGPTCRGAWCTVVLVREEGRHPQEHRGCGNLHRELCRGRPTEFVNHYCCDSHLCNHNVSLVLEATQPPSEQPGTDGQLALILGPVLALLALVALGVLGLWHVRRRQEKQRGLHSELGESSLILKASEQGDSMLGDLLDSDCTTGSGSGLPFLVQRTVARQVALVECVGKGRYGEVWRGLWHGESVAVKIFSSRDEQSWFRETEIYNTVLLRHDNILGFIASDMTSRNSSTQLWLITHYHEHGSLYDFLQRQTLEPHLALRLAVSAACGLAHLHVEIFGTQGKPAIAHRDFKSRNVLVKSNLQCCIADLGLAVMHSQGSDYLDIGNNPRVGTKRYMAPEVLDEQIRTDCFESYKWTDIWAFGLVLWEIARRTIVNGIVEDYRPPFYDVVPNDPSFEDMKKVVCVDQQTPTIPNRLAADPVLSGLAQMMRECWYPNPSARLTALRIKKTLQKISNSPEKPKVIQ
Experimental: as §2

ALK4 = biological target: T3, ALK4 (Homo sapiens, UniProt P36896); assay: In vitro kinase assay ([γ-32P]ATP); format: biochemical; conditions: at the Km value of ATP; triplicate
T3 construct: purchased Invitrogen
T3 sequence (P36896 24-505): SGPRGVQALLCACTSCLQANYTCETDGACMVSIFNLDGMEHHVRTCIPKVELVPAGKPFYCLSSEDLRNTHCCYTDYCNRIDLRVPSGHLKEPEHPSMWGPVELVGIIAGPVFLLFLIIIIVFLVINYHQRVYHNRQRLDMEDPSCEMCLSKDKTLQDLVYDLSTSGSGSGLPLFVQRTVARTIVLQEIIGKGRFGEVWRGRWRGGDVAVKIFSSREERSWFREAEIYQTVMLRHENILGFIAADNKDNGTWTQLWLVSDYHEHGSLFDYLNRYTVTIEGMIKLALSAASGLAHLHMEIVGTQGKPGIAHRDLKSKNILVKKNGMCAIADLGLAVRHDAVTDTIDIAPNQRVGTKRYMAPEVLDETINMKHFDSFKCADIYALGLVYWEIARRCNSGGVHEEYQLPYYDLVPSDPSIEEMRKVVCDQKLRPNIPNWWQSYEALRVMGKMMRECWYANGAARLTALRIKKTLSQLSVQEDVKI
Experimental: as §2

ALK6 = biological target: T4, ALK6 (Homo sapiens, UniProt O00238); assay: In vitro kinase assay ([γ-32P]ATP); format: biochemical; conditions: at the Km value of ATP; triplicate
T4 construct: purchased Nanosyn (enzymatic panel); SGC in-house recombinant human kinases (DSF panel); Invitrogen (ALK1-6)
Experimental: as §2

MAP4K4 = biological target: T5, MAP4K4 (Homo sapiens, UniProt O95819); assay: Nanosyn kinase profiling; format: biochemical; conditions: read-out: Percentage inhibition
T5 construct: purchased Nanosyn (enzymatic panel); SGC in-house recombinant human kinases (DSF panel); Invitrogen (ALK1-6)
T5 sequence (O95819 whole entry): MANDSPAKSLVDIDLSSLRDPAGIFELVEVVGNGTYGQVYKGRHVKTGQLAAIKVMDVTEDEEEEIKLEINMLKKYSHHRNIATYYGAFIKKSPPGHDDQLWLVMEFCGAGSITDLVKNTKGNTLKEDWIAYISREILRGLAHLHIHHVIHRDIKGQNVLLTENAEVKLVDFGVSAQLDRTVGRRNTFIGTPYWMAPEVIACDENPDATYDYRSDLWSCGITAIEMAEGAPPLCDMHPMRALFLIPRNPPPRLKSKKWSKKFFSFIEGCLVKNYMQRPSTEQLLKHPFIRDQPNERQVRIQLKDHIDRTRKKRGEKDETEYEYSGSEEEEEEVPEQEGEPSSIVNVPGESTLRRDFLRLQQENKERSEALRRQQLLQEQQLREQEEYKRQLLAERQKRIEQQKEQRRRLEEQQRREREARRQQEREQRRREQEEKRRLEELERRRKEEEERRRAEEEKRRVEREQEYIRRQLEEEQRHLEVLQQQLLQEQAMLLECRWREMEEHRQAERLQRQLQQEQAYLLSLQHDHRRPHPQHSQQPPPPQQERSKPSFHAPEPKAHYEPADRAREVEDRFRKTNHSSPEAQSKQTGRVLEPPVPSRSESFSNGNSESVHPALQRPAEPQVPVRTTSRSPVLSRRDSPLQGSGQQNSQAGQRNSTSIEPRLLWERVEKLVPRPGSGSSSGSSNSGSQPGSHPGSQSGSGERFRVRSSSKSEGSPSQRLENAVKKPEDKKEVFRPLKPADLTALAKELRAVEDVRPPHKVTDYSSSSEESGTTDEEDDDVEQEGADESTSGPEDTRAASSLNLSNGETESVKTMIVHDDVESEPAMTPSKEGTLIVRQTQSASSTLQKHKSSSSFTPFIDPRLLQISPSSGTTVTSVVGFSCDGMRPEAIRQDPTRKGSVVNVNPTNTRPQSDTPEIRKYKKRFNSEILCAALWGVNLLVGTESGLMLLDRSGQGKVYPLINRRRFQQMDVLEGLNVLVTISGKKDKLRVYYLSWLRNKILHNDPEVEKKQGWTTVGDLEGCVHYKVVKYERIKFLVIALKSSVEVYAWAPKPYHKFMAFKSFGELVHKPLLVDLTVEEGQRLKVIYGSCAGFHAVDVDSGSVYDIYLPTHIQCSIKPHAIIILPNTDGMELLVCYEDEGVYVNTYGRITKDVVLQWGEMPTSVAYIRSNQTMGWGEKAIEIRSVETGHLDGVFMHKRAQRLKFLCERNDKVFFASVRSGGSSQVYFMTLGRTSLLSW
Experimental: (§3) Percentage inhibition was determined for each kinase at both 0.1 µM and 1 µM inhibitor concentration (supplemental Table S2).
(§4) Inhibitor selectivity profiling against 200 human kinases at 0.1 and 1 µM inhibitor concentration was performed by Nanosyn (www.nanosyn.com).

BRAF = biological target: T6, BRAF (Homo sapiens, UniProt P15056); assay: Nanosyn kinase profiling; format: biochemical; conditions: read-out: Percentage inhibition
T6 construct: purchased Nanosyn (enzymatic panel); SGC in-house recombinant human kinases (DSF panel); Invitrogen (ALK1-6)
T6 sequence (P15056 whole entry): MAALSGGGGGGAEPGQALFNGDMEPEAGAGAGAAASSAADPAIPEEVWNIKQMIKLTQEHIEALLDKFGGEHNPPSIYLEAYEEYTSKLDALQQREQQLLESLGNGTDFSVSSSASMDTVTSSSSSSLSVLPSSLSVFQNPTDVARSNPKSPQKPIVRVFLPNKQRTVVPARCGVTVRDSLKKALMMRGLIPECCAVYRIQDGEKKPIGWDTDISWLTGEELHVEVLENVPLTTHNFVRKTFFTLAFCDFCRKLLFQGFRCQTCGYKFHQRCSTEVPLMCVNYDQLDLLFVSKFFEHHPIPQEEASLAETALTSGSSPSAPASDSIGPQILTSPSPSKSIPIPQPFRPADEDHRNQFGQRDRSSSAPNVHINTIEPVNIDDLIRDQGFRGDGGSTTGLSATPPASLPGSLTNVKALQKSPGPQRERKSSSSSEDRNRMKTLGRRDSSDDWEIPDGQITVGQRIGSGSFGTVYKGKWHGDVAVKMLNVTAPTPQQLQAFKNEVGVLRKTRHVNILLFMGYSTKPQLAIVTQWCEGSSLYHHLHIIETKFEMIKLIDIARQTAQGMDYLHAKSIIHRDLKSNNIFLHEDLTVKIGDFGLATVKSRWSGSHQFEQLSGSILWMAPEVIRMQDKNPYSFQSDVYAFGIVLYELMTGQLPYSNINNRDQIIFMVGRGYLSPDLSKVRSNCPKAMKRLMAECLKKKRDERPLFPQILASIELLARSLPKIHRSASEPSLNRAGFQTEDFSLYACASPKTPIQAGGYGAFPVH
Experimental: as §3, §4

FLT3 = biological target: T7, FLT3 (Homo sapiens, UniProt P36888); assay: Nanosyn kinase profiling; format: biochemical; conditions: read-out: Percentage inhibition
T7 construct: purchased Nanosyn (enzymatic panel); SGC in-house recombinant human kinases (DSF panel); Invitrogen (ALK1-6)
T7 sequence (P36888 27-993): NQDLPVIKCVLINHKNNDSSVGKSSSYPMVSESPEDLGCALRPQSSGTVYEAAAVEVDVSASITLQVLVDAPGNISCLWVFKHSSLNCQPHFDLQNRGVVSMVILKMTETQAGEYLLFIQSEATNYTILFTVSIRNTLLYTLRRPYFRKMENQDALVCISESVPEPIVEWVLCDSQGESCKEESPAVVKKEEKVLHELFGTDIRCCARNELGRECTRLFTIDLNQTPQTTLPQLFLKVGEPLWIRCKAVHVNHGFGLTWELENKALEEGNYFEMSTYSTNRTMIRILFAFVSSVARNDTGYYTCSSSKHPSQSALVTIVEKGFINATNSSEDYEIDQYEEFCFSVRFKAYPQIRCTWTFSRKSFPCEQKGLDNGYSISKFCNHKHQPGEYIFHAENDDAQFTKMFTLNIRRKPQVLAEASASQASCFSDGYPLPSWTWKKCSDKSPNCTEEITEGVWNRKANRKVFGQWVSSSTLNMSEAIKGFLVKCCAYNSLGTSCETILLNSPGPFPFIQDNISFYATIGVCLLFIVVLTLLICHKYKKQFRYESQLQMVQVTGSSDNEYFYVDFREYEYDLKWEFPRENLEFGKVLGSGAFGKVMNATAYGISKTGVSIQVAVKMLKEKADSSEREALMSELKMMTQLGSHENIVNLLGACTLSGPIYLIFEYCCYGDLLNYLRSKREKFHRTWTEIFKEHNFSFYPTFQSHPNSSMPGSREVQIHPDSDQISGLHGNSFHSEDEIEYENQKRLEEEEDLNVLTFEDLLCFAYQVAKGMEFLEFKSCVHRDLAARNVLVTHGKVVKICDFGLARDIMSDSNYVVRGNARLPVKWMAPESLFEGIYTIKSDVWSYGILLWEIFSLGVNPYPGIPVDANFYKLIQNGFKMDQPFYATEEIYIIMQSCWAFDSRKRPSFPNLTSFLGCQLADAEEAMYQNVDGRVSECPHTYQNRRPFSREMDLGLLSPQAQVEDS
Experimental: as §3, §4

FMS = biological target: T8, FMS (Homo sapiens, UniProt P07333); assay: Nanosyn kinase profiling; format: biochemical; conditions: read-out: Percentage inhibition
T8 construct: purchased Nanosyn (enzymatic panel); SGC in-house recombinant human kinases (DSF panel); Invitrogen (ALK1-6)
Experimental: as §3, §4

MINK = biological target: T9, MINK (Homo sapiens, UniProt Q8N4C8); assay: Nanosyn kinase profiling; format: biochemical; conditions: read-out: Percentage inhibition
T9 construct: purchased Nanosyn (enzymatic panel); SGC in-house recombinant human kinases (DSF panel); Invitrogen (ALK1-6)
T9 sequence (Q8N4C8 whole entry): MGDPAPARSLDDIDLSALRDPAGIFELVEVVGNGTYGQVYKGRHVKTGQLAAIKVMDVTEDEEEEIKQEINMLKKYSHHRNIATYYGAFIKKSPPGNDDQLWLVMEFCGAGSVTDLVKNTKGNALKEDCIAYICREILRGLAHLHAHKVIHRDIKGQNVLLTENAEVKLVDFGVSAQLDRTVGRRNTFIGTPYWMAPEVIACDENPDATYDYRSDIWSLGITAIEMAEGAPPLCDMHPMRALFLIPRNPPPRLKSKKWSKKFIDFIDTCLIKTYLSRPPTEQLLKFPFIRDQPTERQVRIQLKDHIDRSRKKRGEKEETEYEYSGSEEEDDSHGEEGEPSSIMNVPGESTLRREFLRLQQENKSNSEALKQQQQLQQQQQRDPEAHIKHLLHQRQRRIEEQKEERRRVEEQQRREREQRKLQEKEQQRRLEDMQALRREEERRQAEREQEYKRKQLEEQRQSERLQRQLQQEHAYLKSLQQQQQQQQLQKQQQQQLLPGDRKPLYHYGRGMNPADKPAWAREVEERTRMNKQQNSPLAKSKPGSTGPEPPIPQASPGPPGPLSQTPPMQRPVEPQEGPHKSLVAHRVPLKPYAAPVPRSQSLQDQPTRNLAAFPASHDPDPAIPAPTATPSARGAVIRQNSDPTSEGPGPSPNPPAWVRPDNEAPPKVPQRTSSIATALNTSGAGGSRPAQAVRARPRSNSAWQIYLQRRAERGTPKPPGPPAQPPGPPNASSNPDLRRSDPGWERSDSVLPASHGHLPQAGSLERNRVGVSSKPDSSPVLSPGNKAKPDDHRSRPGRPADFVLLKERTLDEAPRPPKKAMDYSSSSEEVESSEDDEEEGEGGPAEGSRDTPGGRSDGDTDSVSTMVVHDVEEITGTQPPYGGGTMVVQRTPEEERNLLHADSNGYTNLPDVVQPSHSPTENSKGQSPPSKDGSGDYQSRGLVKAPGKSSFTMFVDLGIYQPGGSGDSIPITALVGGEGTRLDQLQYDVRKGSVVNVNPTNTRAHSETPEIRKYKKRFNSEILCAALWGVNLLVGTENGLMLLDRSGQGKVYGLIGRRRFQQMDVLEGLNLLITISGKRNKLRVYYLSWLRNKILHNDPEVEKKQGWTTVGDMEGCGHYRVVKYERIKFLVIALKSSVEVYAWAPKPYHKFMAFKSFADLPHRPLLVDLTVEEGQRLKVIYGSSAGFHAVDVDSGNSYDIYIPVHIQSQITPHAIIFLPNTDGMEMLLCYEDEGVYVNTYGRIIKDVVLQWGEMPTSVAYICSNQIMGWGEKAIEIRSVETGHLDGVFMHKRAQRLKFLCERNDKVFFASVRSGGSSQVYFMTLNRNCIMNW
Experimental: as §3, §4

| Structure (SMILES) | IC50 (C2C12 cells) | concentration at which loss of mRFP protein was evident [1] | inhibition of Smad1/5/8 phosphorylation ([2]; 50 nM, BMP6) | IC50 ([2]; Mus musculus, read-out: IC50 against BMP6 signaling) | inhibition of BMP6-induced Smad1/5/8 phosphorylation [2] | concentration giving severely dorsalized phenotype [3] | IC50 (ALK3) | IC50 (ALK1) | IC50 (ALK4) | IC50 (ALK6) | inhibition at 0.1 µM (MAP4K4; 0.1 µM inhibitor) | inhibition at 1 µM (MAP4K4; 1 µM inhibitor) | inhibition at 0.1 µM (BRAF; 0.1 µM inhibitor) | inhibition at 1 µM (BRAF; 1 µM inhibitor) | inhibition at 0.1 µM (FLT3; 0.1 µM inhibitor) | inhibition at 1 µM (FLT3; 1 µM inhibitor) | inhibition at 0.1 µM (FMS; 0.1 µM inhibitor) | inhibition at 1 µM (FMS; 1 µM inhibitor) | inhibition at 0.1 µM (MINK; 0.1 µM inhibitor) | inhibition at 1 µM (MINK; 1 µM inhibitor) |
| --- | --- | --- | --- | --- | --- | --- | --- | --- | --- | --- | --- | --- | --- | --- | --- | --- | --- | --- | --- | --- |
| c1cc(-c2cnn3cc(-c4ccc(OCCN5CCCCC5)cc4)cnc23)ccn1 [Dorsomorphin] | ~500 nM | – | – | – | – | – | – | – | – | – | – | – | – | – | – | – | – | – | – | – |
| COc1cc(-c2cc(-c3cccc(O)c3)cnc2N)cc(OC)c1OC [K02288, 3-[6-amino-5-(3,4,5-trimethoxy-phenyl)-pyridin-3-yl]-phenol] | – | 8 to 10 µM | near complete inhibition | < 50 nM | potently inhibited | 8 to 10 µM | 34.4 nM | 1.8 nM and 1 to 2 nM | 302 nM | 6.4 nM | 46% | 89% | 0% | 12% | -2% | 0.4% | 6.1% | 33% | 36% | 86% |
| c1ccc2c(-c3cnn4cc(-c5ccc(N6CCNCC6)cc5)cnc34)ccnc2c1 [LDN-193189] | – | – | – | – | potently inhibited | – | – | – | – | – | – | – | – | – | – | – | – | – | – | – |
